According to patent US11230542B2, “Inhibitors of integrated stress response pathway” (Praxis Biotech LLC, priority 2017, dated 2022):

System: hippocampal slices from transgenic APP/PS1 mice
Assay: Electrophysiology and long-term potentiation in hippocampal slices
Details: slices from APP/PS1 mouse, 5 μM, 60 min after theta burst stimulation
Description: Hippocampal slices were prepared as described in Ardiles et al., Pannexin 1 regulates bidirectional hippocampal synaptic plasticity in adult mice. Front Cell Neurosci, vol. 8, art. 326 (2014). Six to eleven-month-old WT C57BL/6 or transgenic APP/PS1 mice (Jackson Lab 34829-JAX) were deeply anesthetized with isoflurane and their brains were quickly removed. 5-10 slices (350 μm) from each animal were dissected in ice-cold dissection buffer using a vibratome (Leica VT1200S, Leica Microsystems, Nussloch, Germany). Slices were incubated with 5 μM ISRIB, 5 μM compound 3, 1 μM compound 152, or a vehicle (complete medium containing 0.1% DMSO) 20 min before conditioning stimulation. Synaptic responses were evoked by stimulating the Schaffer collaterals with 0.2 ms pulses delivered through concentric bipolar stimulating electrodes, and recorded extracellularly in the stratum radiatum of the CA1 subfield. Long-term potentiation (LTP) was induced by four-theta burst stimulation (TBS) (10 trains of four pulses at 100 Hz; 5 Hz inter-burst interval) delivered at 0.1 Hz. LTP magnitude based on field excitatory postsynaptic potential (fEPSP) was calculated as the average (normalized to baseline) of the responses recorded 60 min after conditioning stimulation. Similar experiments can be performed using a different test compound in place of ISRIB, compound 3, or compound 152.

O=C(COc1ccc(Cl)cc1)NC1CCC(NC(=O)COc2ccc(Cl)cc2)CC1 (stereo not shown) [ISRIB]
long-term potentiation (LTP), fEPSP: partial LTP recovery
